Assay results as given in PubChem BioAssay (NCI).
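Where inhibition never reached the appropriate level, the endpoint shown equals the highest concentration tested. Otherwise, values were interpolated linearly from a five-concentration, 48-hour dose response in 96-well plates. GI50 = concentration required for 50% inhibition of growth. At the TGI there is no net growth.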

Columns and labels:
Experiment in all cases: inhibition of tumour cell growth, NCI panel, 48 h
[1] = system: A549 NSCLC
[2] = system: CAKI-1 renal
[3] = system: HT29 colon
[4] = system: IGROV1 ovarian
[5] = system: LOX IMVI melanoma
[6] = system: NCI-H23 lung
[7] = system: SK-OV-3 ovarian
[8] = system: HOP-62 NSCLC
[9] = system: U251 CNS
[10] = system: MDA-MB-435

Compound | TGI [1] | TGI [2] | TGI [3] | TGI [4] | TGI [5] | TGI [6] | TGI [7] | TGI [8] | TGI [9] | GI50 [1] | GI50 [8] | GI50 [3] | GI50 [4] | GI50 [5] | GI50 [10] | TGI [10] | GI50 [6] | GI50 [7] | GI50 [9] | GI50 [2]
O=C(CC(=O)N1N=C(c2ccccc2)C(N=Nc2ccc(C(=O)O)cc2)C1=O)Nc1ccc(F)cc1 (stereo not given) | > 100 µM | > 100 µM | > 100 µM | 80.5 µM | > 100 µM | 90.2 µM | 62.6 µM |  |  |  |  |  |  |  |  |  |  |  |  | 
c1ccc2c(CNCCCCCCNCc3cccc4ccccc34)cccc2c1 | 32.3 µM | 20.7 µM | 5.04 µM | 30.7 µM | 3.5 µM | 30.1 µM | 31.5 µM | 30.6 µM | 22.8 µM |  |  |  |  |  |  |  |  |  |  | 
CC(=O)OCC1OC(OC2C(COC(C)=O)OC(OCCC[S-])C(OC(C)=O)C2OC(C)=O)C(OC(C)=O)C(OC(C)=O)C1OC(C)=O.[Au+].c1ccc(CN2[CH-]N(Cc3ccccc3)C(c3ccccc3)=C2c2ccccc2)cc1 (stereo not given) | 25 µM |  | 13.6 µM | 16 µM | 13.6 µM | 14 µM | 12.6 µM | 18.2 µM | 7.47 µM | 4.29 µM | 3.75 µM | 3.23 µM | 3.06 µM | 3.42 µM | 3.18 µM | 13.6 µM | 3.23 µM | 3.06 µM | 2.77 µM | 
CC#C[C@@]1(O)CCCC[C@@H]1O | > 100 µM |  | > 100 µM | > 100 µM | > 100 µM | > 100 µM | > 100 µM | > 100 µM | > 100 µM |  |  |  |  |  |  |  |  |  |  | 
Cc1cc(NS(=O)(=O)c2ccc(Nc3c4ccccc4nc4c(C(=O)Nc5ccc(S(=O)(=O)N=C(N)N)cc5)cccc34)cc2)no1 | > 100 µM | > 100 µM | > 100 µM | > 100 µM | > 100 µM | > 100 µM | > 100 µM | > 100 µM | > 100 µM |  |  |  |  |  |  |  |  |  |  | 
COC(=O)/C=C/C(=O)C1C(C(=O)OC)C2(C(=O)OC)CCC1(C(=O)OC)N2 (stereo not given) | > 100 µM | > 100 µM | > 100 µM | > 100 µM |  | > 100 µM | > 100 µM | > 100 µM | > 100 µM |  |  |  |  |  |  |  |  |  |  | 
Cc1cc(C)cc(-n2c3nc(=O)n(C)c(=O)c-3nc3ccccc32)c1 | 70.6 µM | 87.3 µM | 41.3 µM | 94.6 µM | 91.8 µM | 39 µM | > 100 µM | > 100 µM | 50.5 µM |  |  |  |  |  |  |  |  |  |  | 
COC(=O)C(=O)C1(CCC(C)=O)c2ccccc2-c2ccccc21 | > 100 µM | > 100 µM | > 100 µM | > 100 µM | > 100 µM | > 100 µM | > 100 µM | > 100 µM | > 100 µM |  |  |  |  |  |  |  |  |  |  | 
O=C1c2ccccc2C(=O)c2c1ccc(C(Br)Br)c2[N+](=O)[O-] | 33.6 µM |  | 3.24 µM | 2.87 µM | 2.59 µM | 4.34 µM | 27.1 µM | 2.99 µM | 2.97 µM | 17.6 µM | 1.42 µM | 1.72 µM | 1.15 µM | 1.27 µM | 1.76 µM | 3.29 µM | 1.6 µM | 14.1 µM | 1.6 µM | 
COC(=O)C[CH](C(=O)OC)[Ge]([CH3])([CH3])[S]c1ccccc1 (stereo not given) | > 100 µM | 47.8 µM | 38.5 µM | 2.2 µM | 17.1 µM | 64.7 µM | 67 µM | 50.5 µM | 26.2 µM | 43.9 µM | 22.4 µM | 18.6 µM | 0.463 µM | 4.92 µM |  |  | 22.9 µM | 25.8 µM | 12 µM | 20.8 µM
Cc1cccc(NC(=O)C(=O)C2C(=O)NC(=O)NC2=O)c1C | > 100 µM | > 100 µM | > 100 µM | > 100 µM | > 100 µM | > 100 µM | > 100 µM | > 100 µM | > 100 µM |  |  |  |  |  |  |  |  |  |  | 
CC(C)[C@@H]1C=C(c2ccccc2)c2ccccc2C1C(C#N)(C#N)C(C)C (stereo not given in full) | > 100 µM |  | > 100 µM | > 100 µM | > 100 µM | > 100 µM | > 100 µM | > 100 µM | > 100 µM |  |  |  |  |  |  |  |  |  |  | 
Cn1cnc([N+](=O)[O-])c1Sc1ccccn1 | > 100 µM | > 100 µM | > 100 µM | > 100 µM | > 100 µM | > 100 µM | > 100 µM | > 100 µM | > 100 µM |  |  |  |  |  |  |  |  |  |  | 
C=CN1C(=O)OC(c2ccccc2)C1c1ccccc1 (stereo not given) | > 100 µM | > 100 µM | > 100 µM | > 100 µM | > 100 µM | > 100 µM | > 100 µM | > 100 µM | > 100 µM | > 100 µM | 52.8 µM | > 100 µM | > 100 µM |  |  |  | > 100 µM | > 100 µM |  | > 100 µM
